The values below come from patent US20230265167A1, “COMPOSITIONS HAVING NEUROREGENERATIVE APPLICATIONS” (GRIFOLS WORLDWIDE OPERATIONS LIMITED, priority 2020, published 2023).

The test system of one series is HIF-1α. The settings on record: reported in US2016008437; cited from earlier work.
A further series deals with rat model of stroke. The settings on record: vs control rats; cited from earlier work.
In series [1] the test system is C57BL/6J mice with transient MCAo. As to the kind of experiment: Neuroscore recovery after transient MCAo. It counts as in vivo, mouse. The settings on record: FIG. 10A, 3-14 days after MCAo, vs saline. As to the method: (§1) C57BL/6J mice (ca. 20 g) were anaesthetized under isoflurane and, after dissection, a 6.0 silicon-coated monofilament suture was inserted into the external carotid artery to occlude the middle cerebral artery (MCAo). The occlusion was carried out for 60 minutes under temperature control.
(§2) Only animals with a ‘neuroscore’ of 4 or greater were considered for further testing (n=8-10 animals/group). At six hours post-occlusion, mice were injected daily with 350 mg/kg of Apo-transferrin (i.p.) or an equal volume of saline for a total of seven days, as well as with 50 mg/kg Bromodeoxyuridine (BrdU; Sigma-Aldrich Chemical, St. Louis, Mo.), both articles delivered by intraperitoneal administration. Weight changes were monitored daily.
Mice were prepared as indicated in Example 9 above and were subjected to assessments at 3 days and 1, 2, 3, 4 weeks post-MCAo, as indicated (n=8-10 animals/group). Motor coordination (i.e. equilibrium behavior and locomotor ability as a function of cortico-striatal function) was assessed using a rotarod test. Learning and memory capacity were measured using the NORT (novel object recognition test; for example, Anglada-Huguet et al., 2014, Molecular Neurobiology, vol. 49, pages 784-795; Denninger et al., 2018, J. Vis. Exp., vol. 141, e58593). […]

Series [2] shares this test system. The experiment in a line: Rotarod test after transient MCAo. The class given is in vivo, mouse. The settings on record: FIG. 10B, vs saline. As to the method: as §1, §2
Mice were prepared as indicated in Example 9 above and were subjected to assessments at 3 days and 1, 2, 3, 4 weeks post-MCAo, as indicated (n=8-10 animals/group). Motor coordination (i.e. equilibrium behavior and locomotor ability as a function of cortico-striatal function) was assessed using a rotarod test. Learning and memory capacity were measured using the NORT (novel object recognition test; for example, Anglada-Huguet et al., 2014, Molecular Neurobiology, vol. 49, pages 784-795; Denninger et al., 2018, J. Vis. Exp., vol. 141, e58593).
The time that it takes an animal to fall (Latency to fall) from the rotarod is shown vs time after MCAo. […]

The nature of series [3]: Iron saturation by ICP-AES. It counts as physicochemical. The text has this:
The skilled person will appreciate that transferrin iron saturation levels can be readily determined without undue burden by quantifying the total iron levels in a sample having a known transferrin concentration. The total iron levels in sample can be measured by any one of a number of methods know by those of skill in the art. Suitable examples include: • Colorimetric assays—Iron is quantitated by measuring the intensity of the violet complex formed in the reaction between ferrozine and Fe^2+ in acetate buffer at 562 nm. Thiourea or other chemicals can be added to complex contaminant metals such Cu^2+, which can also bind with ferrozine and yield falsely elevated iron values. See Ceriotti et al., Improved direct specific determination of serum iron and total iron-binding capacity Clin Chem. 1980, 26(2), 327-31, the contents of which are incorporated herein by reference. • Inductively Coupled Plasma Atomic Emission Spectroscopy (ICP-AES)—is an emission spectroscopy technique that quantifies the mass percentage of metals in a sample. ICP-AES is based on the excitation of metal atoms/ions in the sample using a plasma (an ionized gas consisting of positive ions and free electrons) and analyzing the emission wavelength of the electromagnetic radiation, which is typical of that particular metal. Even though the technique is a standard analytical technique within common general knowledge of the skilled person, further information on ICP-AES can be found in Manley et al., Simultaneous Cu-, Fe-, and Zn-specific detection of metalloproteins contained in rabbit plasma by size-exclusion chromatography-inductively coupled plasma atomic emission spectroscopy. J Biol Inorg Chem. 2009, 14, 61-74, the contents of which are incorporated herein by reference.
The preferred method of determining the iron content of a sample for the purposes of the therapeutic method of the present invention is ICP-AES. The iron saturation of transferrin is then calculated based on the transferrin protein concentration, total iron content of the sample, and the fact that wild type transferrin has two iron-binding sites. Wild type human transferrin (molecular weight 79,750) can bind two iron atoms such that a sample containing 1 g of transferrin would be 100% saturated by 1.4 mg of iron.
Protein purity was determined by SDS-PAGE. Iron saturation levels were determined using ICP-AES in accordance with the procedures outlined in Manley et al., J Biol Inorg Chem (2009) 14:61-74, the contents of which are incorporated herein by reference.

The next series has as its system SH-SY5Y cells. As to the kind of experiment: β-III-tubulin staining intensity in SH-SY5Y cells. It counts as cell-based, human. The settings on record: FIG. 1D. As to the method:
In this experiment, the SH-SY5Y cells were differentiated as described supra. At the time of analysis, cells were fixed with paraformaldehyde, stained for β-III-tubulin (R&D Systems, MAB1195), and imaged on a Molecular Devices Nano imaging instrument. Image analysis was performed by assessing the fluorescent intensity of cells stained with β-III-tubulin. Background from secondary antibody alone was subtracted from all values. Values are shown with standard deviations as “β-III-Tubulin Staining Intensity” for the indicated conditions.

Entries after “also recorded” stand apart in the source; their conditions may differ.

Regarding “apo-transferrin: iron-free form of transferrin protein, obtained and purified from pooled human plasma”, the HIF-1α production entry in the series on HIF-1α was “can induce HIF-1α production”. In addition, the “volume of the infarcted area (neuroprotective effect)” value in the series on rat model of stroke was “decrease in the volume of the infarcted area”. In addition, the “rate of recovery (percentage of animals with neuroscore 0)” value was “quicker recovery” in series [1] and “significantly improves the rate at which the animals recover” in series [1] (listed as ApoTf). Moreover, the “motor and balance skills (Latency to fall from rotarod)” value in series [2] was “better motor skills; also recorded: increased motor and balance skills”; in series [2] (listed as apoTf) it was “better overall abilities to remain on the rotarod”. In series [3], the “Iron Saturation (%)” value is less than 0.3%. Besides, the “β-III-Tubulin Staining Intensity” value in the series with SH-SY5Y cells is listed as “caused an increase in β-III-tubulin protein”.
